Assay results reported in the NIST ThermoML archive (doi:10.1021/je7003116).

Experiment: mn = molality of the nth substance listed, in mol/kg
Conditions: for electrical conductivity / mass density: 101 kPa, Liquid; for electrical conductivity: Alternating current cell with electrodes

CC(=O)CC(c1ccccc1)c1c([O-])c2ccccc2oc1=O.[Na+] (stereo not given) [warfarin sodium] + O
Conditions	electrical conductivity [S/m]	mass density [kg/m3]	surface tension liquid-gas [mN/m]
293.15 K, m1 = 0.005	0.0273	–	–
293.15 K, m1 = 0.00573	–	998.701	–
293.15 K, m1 = 0.006	0.0326	–	66.46
293.15 K, m1 = 0.00689	–	998.801	–
293.15 K, m1 = 0.007	0.0379	–	65.61
293.15 K, m1 = 0.00749	–	998.852	–
293.15 K, m1 = 0.008	0.0434	–	64.92
293.15 K, m1 = 0.00851	–	998.94	–
293.15 K, m1 = 0.009	0.0485	–	64.06
293.15 K, m1 = 0.00983	–	999.054	–
293.15 K, m1 = 0.01	0.0535	–	62.77
293.15 K, m1 = 0.018	–	–	58.07
293.15 K, m1 = 0.02	0.1042	–	–
293.15 K, m1 = 0.02401	–	1000.27	–
293.15 K, m1 = 0.027	–	–	52.97
293.15 K, m1 = 0.04	0.198	–	50.48
293.15 K, m1 = 0.0466	–	1002.19	–
293.15 K, m1 = 0.054	–	–	48.47
293.15 K, m1 = 0.06	0.283	–	–
293.15 K, m1 = 0.067	–	–	45.58
293.15 K, m1 = 0.0718	–	1004.26	–
293.15 K, m1 = 0.078	–	–	43.98
293.15 K, m1 = 0.08	0.381	–	–
293.15 K, m1 = 0.089	–	–	41.68
293.15 K, m1 = 0.0984	–	1006.41	–
293.15 K, m1 = 0.1	0.464	–	–
293.15 K, m1 = 0.107	–	–	41.58
293.15 K, m1 = 0.125	0.56	–	40.94
293.15 K, m1 = 0.1251	–	1008.51	–
293.15 K, m1 = 0.15	0.651	1010.43	40.38
293.15 K, m1 = 0.175	0.737	–	40.23
293.15 K, m1 = 0.176	–	1012.59	–
293.15 K, m1 = 0.2	0.822	1014.56	40.72
293.15 K, m1 = 0.225	0.901	1016.71	40.23
293.15 K, m1 = 0.25	0.974	1018.89	39.64
293.15 K, m1 = 0.275	1.041	1020.99	–
293.15 K, m1 = 0.279	–	–	40.09
293.15 K, m1 = 0.3	1.102	1023.15	–
293.15 K, m1 = 0.325	–	1025.24	–
293.15 K, m1 = 0.35	–	1027.33	–
293.15 K, m1 = 0.375	–	1029.29	–
293.15 K, m1 = 0.401	–	1031.33	–
303.15 K, m1 = 0.005	0.0288	–	–
303.15 K, m1 = 0.00579	–	996.134	–
303.15 K, m1 = 0.006	0.0344	–	–
303.15 K, m1 = 0.00695	–	996.231	–
303.15 K, m1 = 0.007	0.04	–	–
303.15 K, m1 = 0.00754	–	996.281	–
303.15 K, m1 = 0.008	0.0455	–	–
303.15 K, m1 = 0.00857	–	996.367	–
303.15 K, m1 = 0.009	0.051	–	–
303.15 K, m1 = 0.00987	–	996.476	–
303.15 K, m1 = 0.01	0.0565	–	–
303.15 K, m1 = 0.02	0.1087	–	–
303.15 K, m1 = 0.024	–	997.658	–
303.15 K, m1 = 0.04	0.209	–	–
303.15 K, m1 = 0.0465	–	999.515	–
303.15 K, m1 = 0.06	0.302	–	–
303.15 K, m1 = 0.0715	–	1001.52	–
303.15 K, m1 = 0.08	0.39	–	–
303.15 K, m1 = 0.0983	–	1003.59	–
303.15 K, m1 = 0.1	0.473	–	–
303.15 K, m1 = 0.125	0.575	1005.62	–
303.15 K, m1 = 0.15	0.67	1007.48	–
303.15 K, m1 = 0.175	0.761	–	–
303.15 K, m1 = 0.176	–	1009.57	–
303.15 K, m1 = 0.2	0.847	1011.47	–
303.15 K, m1 = 0.225	0.928	1013.56	–
303.15 K, m1 = 0.25	1.008	1015.65	–
303.15 K, m1 = 0.275	1.081	1017.69	–
303.15 K, m1 = 0.3	1.154	1019.77	–
303.15 K, m1 = 0.325	–	1021.79	–
303.15 K, m1 = 0.35	–	1023.81	–
303.15 K, m1 = 0.375	–	1025.71	–
303.15 K, m1 = 0.3999	–	1027.67	–
313.15 K, m1 = 0.005	0.0299	–	–
313.15 K, m1 = 0.00576	–	992.687	–
313.15 K, m1 = 0.006	0.0358	–	–
313.15 K, m1 = 0.00695	–	992.784	–
313.15 K, m1 = 0.007	0.0416	–	–
313.15 K, m1 = 0.00759	–	992.836	–
313.15 K, m1 = 0.008	0.0474	–	–
313.15 K, m1 = 0.00857	–	992.916	–
313.15 K, m1 = 0.009	0.0532	–	–
313.15 K, m1 = 0.00988	–	993.022	–
313.15 K, m1 = 0.01	0.059	–	–
313.15 K, m1 = 0.02	0.1131	–	–
313.15 K, m1 = 0.0241	–	994.171	–
313.15 K, m1 = 0.04	0.216	–	–
313.15 K, m1 = 0.047	–	995.977	–
313.15 K, m1 = 0.06	0.314	–	–
313.15 K, m1 = 0.0719	–	997.928	–
313.15 K, m1 = 0.08	0.401	–	–
313.15 K, m1 = 0.0984	–	999.945	–
313.15 K, m1 = 0.1	0.489	–	–
313.15 K, m1 = 0.125	0.595	1001.91	–
313.15 K, m1 = 0.15	0.694	1003.72	–
313.15 K, m1 = 0.175	0.79	–	–
313.15 K, m1 = 0.176	–	1005.74	–
313.15 K, m1 = 0.2	0.88	1007.59	–
313.15 K, m1 = 0.225	0.963	1009.61	–
313.15 K, m1 = 0.25	1.046	1011.64	–
313.15 K, m1 = 0.275	1.13	1013.62	–
313.15 K, m1 = 0.3	1.206	1015.64	–
313.15 K, m1 = 0.325	–	1017.6	–
313.15 K, m1 = 0.35	–	1019.56	–
313.15 K, m1 = 0.375	–	1021.4	–
313.15 K, m1 = 0.4009	–	1023.31	–
323.15 K, m1 = 0.005	0.0327	–	–
323.15 K, m1 = 0.00585	–	988.498	–
323.15 K, m1 = 0.006	0.039	–	–
323.15 K, m1 = 0.007	0.0454	–	–
323.15 K, m1 = 0.00702	–	988.591	–
323.15 K, m1 = 0.00767	–	988.642	–
323.15 K, m1 = 0.008	0.0516	–	–
323.15 K, m1 = 0.0087	–	988.722	–
323.15 K, m1 = 0.009	0.0576	–	–
323.15 K, m1 = 0.01	0.0638	–	–
323.15 K, m1 = 0.01001	–	988.824	–
323.15 K, m1 = 0.02	0.1211	–	–
323.15 K, m1 = 0.0243	–	989.947	–
323.15 K, m1 = 0.04	0.233	–	–
323.15 K, m1 = 0.0469	–	991.708	–
323.15 K, m1 = 0.06	0.338	–	–
323.15 K, m1 = 0.072	–	993.609	–
323.15 K, m1 = 0.08	0.429	–	–
323.15 K, m1 = 0.0985	–	995.582	–
323.15 K, m1 = 0.1	0.523	–	–
323.15 K, m1 = 0.125	0.634	997.493	–
323.15 K, m1 = 0.15	0.734	999.248	–
323.15 K, m1 = 0.175	0.83	–	–
323.15 K, m1 = 0.1765	–	1001.22	–
323.15 K, m1 = 0.2	0.921	1003.02	–
323.15 K, m1 = 0.225	1.008	1004.99	–
323.15 K, m1 = 0.25	1.091	1006.96	–
323.15 K, m1 = 0.275	1.171	1008.89	–
323.15 K, m1 = 0.3	1.245	1010.86	–
323.15 K, m1 = 0.325	–	1012.77	–
323.15 K, m1 = 0.35	–	1014.68	–
323.15 K, m1 = 0.375	–	1016.47	–
323.15 K, m1 = 0.4021	–	1018.32	–
